The text below walks through data of patent US20130295036A1, “METHOD OF USING WOOD EXTRACTS IN COSMETIC AND HYGIENE PRODUCTS” (FLAVITPURE, INC., priority 2012, published 2013).

Data set [1] concerns 5-LOX mediated LT biosynthesis. Put plainly: Leukotriene (LT) biosynthesis inhibition. Type of data set: biochemical. From the text:
(§1) The body's early defense in response to trauma, inflammation or infection, the acute phase response (APR), is a complex set of systemic reactions seen shortly after exposure to a triggering event. The APR is induced by protein hormones called cytokines acting as messengers between the local site of injury and the hepatocytes synthesizing the acute phase proteins such as serum amyloid A. Most cytokines have multiple sources, targets and multiple functions. The pro-inflammatory cytokines can be divided into two major groups with respect to acute phase proteins inductions, the Interleukin-1 (IL-1) type (including Tumor Necrosis Factor-a, TNF-a) and the IL-6 type cytokines (including IL-6 cytokine). These cytokines are secreted primarily by monocytes activated by bacterial toxins or in response to local tissue injury.

Data set [2] deals with Antioxidant Response Element. To be noted: cited from earlier work.
Another data set relates to lipid peroxidation. To be noted: in vitro and ex vivo; cited from earlier work.
In the next data set the test system is rats. To be noted: high levels for long periods of time; cited from earlier work.
Data set [3] has as its system dendritic cells of bone marrow and spleen. To be noted: cited from earlier work.
Another data set relates to serum and liver lipids. To be noted: following exposure to toxic ionizing radiation; cited from earlier work.
Another data set deals with T1, COX-2 (Homo sapiens, UniProt P35354).
T1 sequence (P35354 18-604): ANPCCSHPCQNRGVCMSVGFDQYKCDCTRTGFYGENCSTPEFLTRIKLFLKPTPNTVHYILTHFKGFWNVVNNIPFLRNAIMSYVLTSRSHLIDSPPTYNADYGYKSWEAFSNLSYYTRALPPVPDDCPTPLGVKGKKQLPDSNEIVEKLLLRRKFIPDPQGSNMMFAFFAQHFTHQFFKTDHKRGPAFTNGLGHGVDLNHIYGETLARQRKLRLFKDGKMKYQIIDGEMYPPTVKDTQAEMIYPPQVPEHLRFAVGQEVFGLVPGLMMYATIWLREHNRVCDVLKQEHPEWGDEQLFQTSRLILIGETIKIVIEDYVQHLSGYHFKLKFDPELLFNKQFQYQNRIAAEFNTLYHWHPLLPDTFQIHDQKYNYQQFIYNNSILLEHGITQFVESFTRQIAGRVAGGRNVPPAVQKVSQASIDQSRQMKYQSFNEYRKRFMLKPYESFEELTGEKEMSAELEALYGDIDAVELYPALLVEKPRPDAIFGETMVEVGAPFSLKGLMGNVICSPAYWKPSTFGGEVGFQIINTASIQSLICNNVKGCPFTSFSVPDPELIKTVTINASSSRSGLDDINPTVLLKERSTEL
Description: COX-2 inhibition. Type of data set: biochemical.
Excerpt: as §1

With `C=CC(C)(O)CCC1C(=C)CC(OC(C)=O)C2C(C)(C)CCCC12C` (stereo not shown) [Larixyl acetate], the “LT biosynthesis inhibitory activity” value in data set [1] is on record as “highly active”.

`O=C1c2c(O)cc(O)cc2O[C@H](c2ccc(O)c(O)c2)[C@H]1O` [Dihydroquercetin (taxifolin), (2R,3R)-2-(3,4-dihydroxyphenyl)-3,5,7-trihydroxy-chroman-4-one]: the “activation of Antioxidant Response Element” value in data set [2] is listed as “significantly activates”. Also, the “inhibition of lipid peroxidation” value in the data set with lipid peroxidation is given as “inhibits lipid peroxidation”. Also, the toxic effects result in the data set on rats is recorded as “No toxic effects”. In addition, the “production of cytokines, formation of ROS and NO, and change in intracellular Ca2+ levels” value in data set [3] was “significant inhibitory effect”. The “peroxidation of serum and liver lipids” value in the data set with serum and liver lipids was “inhibited”.

With `C=C[C@@]1(C)CC[C@H]2C(=CC[C@@H]3[C@]2(C)CCC[C@@]3(C)C(=O)O)C1` [Isopimaric acid], the “LT biosynthesis inhibitory activity” value in data set [1] was “potent inhibitor”.

As for `CC(C)c1ccc2c(c1)CC[C@H]1[C@](C)(CO)CCC[C@]21C` [dehydroabietinol], the “LT biosynthesis inhibitory activity” value in data set [1] is “high LT formation inhibitory activity”.

In the case of `CC(C)C1=CC2=C(CC1)[C@@]1(C)CCC[C@@](C)(C(=O)O)[C@@H]1CC2` [palustric acid], at COX-2, the COX-2 inhibitory activity entry is on record as “moderate”. Further, the “LT biosynthesis inhibitory activity” value in data set [1] is “less pronounced”.
